# Test results: patent publication US20250082653A1, “THERAPEUTIC PRODUCT IN THE FORM OF A DENTAL GEL” (CB21 PHARMA, S.R.O., priority 2021, published 2025)
# How the values were obtained:
# [1] = tested on: Porphyromonas gingivalis CCM 3985; assay: MIC by microdilution method (CLSI M11), anaerobic; assay type: cell-based; details: P. gingivalis, 60 h anaerobic incubation, three independent experiments
# Experimental: (§1) Strains Streptococcus mutans CCM 7409 and Porphyromonas gingivalis CCM 3985 were selected for testing. Both were obtained from Czech Collection of Microorganisms (Brno). BHI+kh medium (Brain-heart infusion (Oxoid, UK) enriched with vitamin K (0.001 mg/ml) and hemin ([…])) was used to cultivate S. mutans, and for P. gingivalis medium WCHA—Wilkins-Chalgren agar (HiMedia, India), with 7% sheep erythrocytes and vitamin K (0.001 mg/ml). (Blaskovich M A T, Kavanagh A M, Elliott A G, Zhang B, Ramu S, Amado M et al. The antimicrobial potential of cannabidiol. Commun Biol 2021; 4(1):1-18).
# (§2) The susceptibility of selected microbes to tested substance was verified by the microdilution method according to Clinical and Laboratory Standards Institute (M Methods for Antimicrobial Susceptibility Testing of Anaerobic Bacteria. 9th ed. CLSI standard M11. Wayne, PA: Clinical and Laboratory Standards Institute; 2018).
# (§3) Basic working solutions were prepared from the tested substance by dilution in DMSO. […] The required concentrations of the tested substance were then prepared by serial dilution, dilution factor 1:2. 135 μl of each dilution was pipetted into the wells of a 96-well round-bottomed hardened polystyrene microtiter plate (Gamma České Budějovice, a.s.).
# (§4) From fresh cultures of the test strains on Wilkins-Chalgren agar (WCHA; HiMedia, India), with 7% sheep erythrocytes and vitamin K, suspensions were prepared in BHI+kh at an optical density corresponding to 0.5 degrees McFarland turbidity scale (after subtraction of optical density of the medium). The suspensions were then diluted in the ratio 1:15 (final inoculum concentration 5×10^6 CFU/ml). Individual wells with 135 μl of the CBD solutions and control wells were inoculated with 15 μl of the prepared inoculum.
# (§5) The inoculated microtiter plates were incubated in an Anaerobic Work Station (Ruskinn Technology, UK) with an anaerobic atmosphere (80% N2, 10% CO2 and 10% H2) at 37° C. The incubation was performed for 60 hours for P. gingivalis and 24 hours for S. mutans.
# (§6) The sterility of the medium was checked by transferring 150 μl BHI+kh to three wells of a microtiter plate. […]
# (§7) After evaluating the MIC, the contents of the wells with the highest concentration of CBD and with visible microbial growth were inoculated onto WCHA. […] After 48 hours (S. mutans) or 14 days (P. gingivalis) of incubation in an anaerobic atmosphere, the purity of the grown microbial culture was evaluated. […]
# (§8) The growth of the microbe, which manifested itself by turbidity of the medium or as a sediment at the bottom of the well of the microtiter plate, was monitored in the individual wells of the microtiter plate. […] The minimum inhibitory concentration (MIC) was determined as the lowest concentration of the substance at which no microbial growth was observed. […]
# [2] = tested on: Streptococcus mutans CCM 7409; assay: MIC by microdilution method (CLSI M11), anaerobic; assay type: cell-based; details: S. mutans, 24 h anaerobic incubation, three independent experiments
# Experimental: as §1, §2, §3, §4, §5, §6, §7, §8
# IL-8 = IL-8 production (ELISA) in HGF after P. gingivalis LPS inflammation induction; assay type: cell-based, human; details: CBD 0.25 and 0.5 μmol/l, 6 and 24 h
# Experimental: (§9) According to the values obtained from the MTT test, two subtoxic concentrations of CBD (0.25 and 0.5 μmol/l) were selected and used to determine its anti-inflammatory effect. Inflammation to HGF was induced by P. gingivalis lipopolysaccharide (LPS) according to How K. Y., Song K. P., Chan K. G., Porphyromonas gingivalis: An Overview of Periodontopathic Pathogen below the Gum Line. Front Microbiol 2016; 7:53. HGFs were seeded in 6-well plates and allowed to grow to confluence. The cells were washed with 1 ml of PBS, and then LPS (1 μg/ml, 2 ml/well) in serum-free culture medium was added, and incubated for 24 hours. A portion of the cells was left without the application of LPS (i.e., without induced inflammation). At the end of the incubation period, CBD in serum-free culture medium at concentrations of 0.25 and 0.5 μmol/l was added (2 ml/well) for 6 and 24 hours, both for cells cultured with LPS and for cells without LPS application. At selected time intervals, the culture medium was collected and stored at −80° C. for further analysis. The levels of proinflammatory interleukins IL-6, IL-8 (Human ELISA Development Kit, Cat. No. 900-K16 and 900-K18, PeproTech, Baria, Czech Republic) and matrix metalloproteinase (MMP-2) (Duo Set ELISA Development System, Cat. No. DY902, R&D, Bio-Techne, UK) were determined by ELISA. […]
# [3] = tested on: matrix metalloproteinase (MMP-2); assay: MMP-2 production (ELISA) in HGF after P. gingivalis LPS inflammation induction; assay type: cell-based, human; details: CBD 0.25 and 0.5 μmol/l, 6 and 24 h
# Experimental: as §9
# gingival fibroblasts = assay: Permeation of CBD into gingival fibroblasts (UHPLC/MS); assay type: in vitro ADME, human; details: 0.5 μM CBD
# Experimental: Gingival fibroblasts (obtained from three healthy patients) were seeded in a 6-well plate (well area 9.6 cm^2) and allowed to grow until the next day (confluence). CBD was applied to the cells at a concentration of 0.5 μM for 6 and 24 hours. At the end of the incubation period, 250 μl of medium was mixed with 250 μl of methanol with 1% (w/w) HCl and the cells were washed 2× with PBS (1 ml), scraped from 4 wells into PBS (phosphate buffer, 1 ml), centrifuged for 5 minutes at 3000 rpm. After centrifugation, PBS was removed and 0.5 ml of methanol with 1% (w/w) HCl was added and the cells were sonicated (cycle 0.5, amplitude 50, 10 times). The samples were then centrifuged for 2 minutes at 8000 rpm and the supernatant was pipetted into a clean tube and subjected to UHPLC/MS analysis.
# UHPLC/MS analyses were performed on an ACQUITY I Class liquid chromatograph (Waters, Milford, MA, USA). It is a modular system consisting of a chromatographic pump (Binary Solvent Manager), autosampler (Sample Manager) and column thermostat (Column Manager). Kinetex Polar C18 (100×2.1 mm i.d., 2.6 μm; Phenomenex, CA, USA) was used as the analytical column. The system was operated with a gradient elution of the mobile phase (MFA 0.1% formic acid in water, MFB 0.1% formic acid in acetonitrile) at a flow rate of 0.6 ml/min and a temperature of 25° C. The gradient elution had the following parameters: 0 to 11 min 50 to 70% MFB, 11 to 12.5 min 70 to 100% MFB, 12.5 to 13 min 100 to 50% MFB, 13 to 16 min 50% MFB. The injection volume was 2 μl.
# A high resolution Synapt G2-S mass spectrometer (Waters Corp., Manchester, UK) connected to the UPLC system via an electrospray ionization (ESI) interface was used for the metabolic study. The ion source was operated in positive ionization mode with a capillary voltage of 3.0 kV and a sample cone of 30 V. The source temperature and desolvation gas temperature were set at 120° C. and 320° C. The desolvation gas flow rate was 900 l/h. […]
# [4] = tested on: human gingival fibroblasts (HGF); assay: MTT cytotoxicity test in human gingival fibroblasts; assay type: cell-based; details: CBD 0.25 and 0.5 μmol/l; 24 h incubation
# Experimental: In an in vitro study of the effect of cannabidiol (CBD), human gingival fibroblasts (HGF) isolated from gingiva taken from volunteers at the Department of Oral, Maxillofacial and Facial Surgery of the University Hospital and Medical Faculty of Palacký University Olomouc approved by the Ethics Committee of the University Hospital and Medical Faculty of Palacký University Olomouc (2019) were used. In the first phase of the experiment, a safe CBD concentration was determined based on the results of MTT, which is cytotoxicity test based on the reduction of 3-(4,5-dimethylthiazol-2-yl)-2,5-diphenyltetrazolium bromide (MTT) to the corresponding formazane. The test was performed according to M. D. Maines, L. G. Costa, D. J. Reed, et al. Current protocols in toxicology. New York: John Wiley & Sons. (1998).
# Cells seeded in a 96-well plate at a count of 3×10^4 cells/ml and 100 μl/well, which were […], 100 μl MTT was added (0.5 mg/ml in serum-free culture medium), the mixture was incubated for 2 h. After the incubation period and aspiration of the MTT mixture, 100 μl DMSO (dimethyl sulfoxide) with NH3 (1%, v/v) was added. Absorbance was measured at 540 nm.
# IL-6 = IL-6 production (ELISA) in HGF after P. gingivalis LPS inflammation induction; assay type: cell-based, human; details: CBD 0.25 and 0.5 μmol/l, 6 and 24 h
# Experimental: as §9
smiles,measurement,setting,value
"C=C(C)[C@@H]1CCC(C)=C[C@H]1c1c(O)cc(CCCCC)cc1O [CBD, cannabidiol]",MIC range,[1],1 to 2 µg/mL
same,MIC,"[1]; Porphyromonas gingivalis, CCM3985, read-out: MIC median",1.5 µg/mL
same,MIC range,[2],16 µg/mL
same,MIC,"[2]; Streptococcus mutans, CCM7409, read-out: MIC median",16 µg/mL
same,levels of IL-8,IL-8,decrease
same,MMP-2 levels,[3],no significant changes
same,absorption of CBD by gingival fibroblasts,"gingival fibroblasts; 6 and 24 h, cell lysates",absorbed relatively quickly
same,CBD in the culture medium,"gingival fibroblasts; 6 and 24 h incubation, UHPLC/MS",not detected
same,metabolites of CBD,gingival fibroblasts; after 24 h of cultivation,no metabolites of CBD were identified
same,Cytotoxicity by MTT test,[4],subtoxic
same,levels of IL-6,IL-6,decrease
